Biological target: T1, Sirt1 (Homo sapiens, UniProt Q96EB6)
T1 sequence (Q96EB6 2-747): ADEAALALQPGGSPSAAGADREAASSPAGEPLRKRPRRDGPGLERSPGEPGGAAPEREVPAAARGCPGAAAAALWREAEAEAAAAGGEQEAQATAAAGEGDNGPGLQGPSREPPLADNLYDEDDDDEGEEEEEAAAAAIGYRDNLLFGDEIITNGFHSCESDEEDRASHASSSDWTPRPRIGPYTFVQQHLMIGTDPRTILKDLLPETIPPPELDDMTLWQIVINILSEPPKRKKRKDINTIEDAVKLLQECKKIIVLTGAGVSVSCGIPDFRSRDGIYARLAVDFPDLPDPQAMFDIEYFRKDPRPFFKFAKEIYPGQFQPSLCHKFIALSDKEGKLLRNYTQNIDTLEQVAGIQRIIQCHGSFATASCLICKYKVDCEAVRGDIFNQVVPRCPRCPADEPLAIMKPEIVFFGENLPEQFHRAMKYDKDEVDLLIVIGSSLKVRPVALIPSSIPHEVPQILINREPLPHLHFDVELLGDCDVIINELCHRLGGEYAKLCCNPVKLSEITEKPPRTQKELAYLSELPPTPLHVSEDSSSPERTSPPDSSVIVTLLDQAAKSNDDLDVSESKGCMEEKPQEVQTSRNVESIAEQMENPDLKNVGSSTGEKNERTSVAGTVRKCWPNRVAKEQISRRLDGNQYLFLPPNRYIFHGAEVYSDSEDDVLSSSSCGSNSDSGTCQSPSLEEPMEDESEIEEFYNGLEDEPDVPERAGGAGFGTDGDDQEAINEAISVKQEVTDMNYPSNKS
Experiment: nicotinamidase/glutamate dehydrogenase coupled assay
Assay type: biochemical

Work on `Nc1ncnc2c1ncn2[C@@H]1O[C@H](COP(=O)(O)OP(=O)(O)OC[C@H]2OC(O)[C@H](O)[C@@H]2O)[C@@H](O)[C@H]1O` (stereo partly shown) [ADP-ribose] yielded an IC50 of 77 ± 4 µM.
